According to article PMC11990191, “Pharmacochemical Studies of Synthesized Coumarin–Isoxazole–Pyridine Hybrids” (Molecules, 2025):

Target: T1, soybean lipoxygenase (sLOX) (Glycine max, UniProt P08170)
T1 construct: gene LOX1.1
T1 sequence (P08170 1-839): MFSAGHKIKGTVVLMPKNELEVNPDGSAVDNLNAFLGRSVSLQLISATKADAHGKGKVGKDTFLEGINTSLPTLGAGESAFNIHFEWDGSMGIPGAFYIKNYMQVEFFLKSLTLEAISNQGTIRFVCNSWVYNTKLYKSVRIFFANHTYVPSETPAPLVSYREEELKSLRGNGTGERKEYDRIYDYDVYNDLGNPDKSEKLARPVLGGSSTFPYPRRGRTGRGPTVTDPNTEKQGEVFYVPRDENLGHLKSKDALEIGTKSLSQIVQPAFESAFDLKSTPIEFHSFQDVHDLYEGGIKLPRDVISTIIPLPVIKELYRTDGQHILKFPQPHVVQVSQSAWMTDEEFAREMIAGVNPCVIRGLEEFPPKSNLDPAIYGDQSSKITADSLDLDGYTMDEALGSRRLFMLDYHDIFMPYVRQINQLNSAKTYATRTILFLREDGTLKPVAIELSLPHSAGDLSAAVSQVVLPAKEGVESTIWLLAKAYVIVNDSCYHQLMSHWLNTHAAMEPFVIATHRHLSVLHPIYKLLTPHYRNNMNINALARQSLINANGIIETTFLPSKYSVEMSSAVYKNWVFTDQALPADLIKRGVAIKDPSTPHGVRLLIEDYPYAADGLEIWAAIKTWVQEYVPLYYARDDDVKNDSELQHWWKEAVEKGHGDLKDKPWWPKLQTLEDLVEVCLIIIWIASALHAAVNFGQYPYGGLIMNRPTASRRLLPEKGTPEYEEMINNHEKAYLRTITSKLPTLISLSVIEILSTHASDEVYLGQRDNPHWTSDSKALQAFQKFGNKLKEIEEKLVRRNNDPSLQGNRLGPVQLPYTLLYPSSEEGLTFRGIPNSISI
Experiment: UV absorbance enzyme assay at […] nm, sodium linoleate substrate, pH […]
Type: biochemical
Settings: read-out: LOX(%)/ IC50

Row | IC50 [µM] | SMILES
1 | 10 | O=c1ccc2ccc(OCc3cc(-c4cccnc4)no3)cc2o1 [7a, 7-((3-(Pyridin-3-yl)isoxazol-5-yl)methoxy)-2H-chromen-2-one]
2 | 5 | O=c1cc(OCc2cc(-c3ccncc3)no2)c2ccccc2o1 [13a, 4-((3-(Pyridin-4-yl)isoxazol-5-yl)methoxy)-2H-chromen-2-one]
